Measured values reported in patent US6558699B2, “High drug load immediate and modified release oral dosage formulations and processes for their manufacture” (SmithKline Beecham Corporation, priority 1997, dated 2003).

Key:
[1] = Human clinical studies (tolerability and pharmacokinetics); format: in vivo; settings: for safety and tolerability: human clinical studies, doses up to 800 mg per day
[2] = Hydrate formation during wet granulation (TGA, DSC, XRD); format: physicochemical; settings: wet granulation with water
Excerpt: (§1) FIGS. 1(A), 2(A) and 3(A) show, respectively, the thermogravimetric analysis (TGA), the differential scanning calorimetric (DSC) thermogram and the powder X-ray diffraction (XRD) pattern of the free base of anhydrous (E)-α-[2-n-butyl-1-[(4-carboxyphenyl)methyl]-1H-imidazol-5-yl]methylene-2-thiophenepropionic acid.
as §1, with “1B-D, 2B-D” for “1(A), 2(A)”, “3B-D” for “3(A)”, “patterns for the granulations” for “pattern”, “acid with different binders and binder-diluent combinations.” for “acid.”
FIGS. 1B, 2B and 3B show, respectively, the thermogravimetric analysis (TGA), the differential scanning calorimetric (DSC) thermogram and the powder X-ray diffraction (XRD) patterns for the granulations of (E)-α-[2-n-butyl-1-[(4-carboxyphenyl)methyl]-1H-imidazol-5-yl]methylene-2-thiophenepropionic acid with Starch 1551 (96/4 eprosartan free base/Starch 1551). […]

[3] = Drug release from enteric-coated modified release tablets and drug solubility at the initiation pH; settings: pH >4.0 (PVAP), >5.0 (HPMCP), 5.5 (Eudragit)
Excerpt: Tablets of Formulas 1-4 may be optionally provided with an aqueous film coating. Generally, these tablets are coated first with a polymer solution to form a clear film, and then coated with an aqueous polymer solution/suspension to form an opaque, white or colored film. […] In contrast, tablets of Formulas 5-7 are first coated with an aqueous polymer solution to form a clear film (often called seal coat) and then with an aqueous solution/suspension of an enteric polymer such as Eudragit L30D, hydroxypropyl methycellulose acetate phthalate (HPMCP), cellulose acetate phthalate (CAP) or polyvinyl acetate phthalate (PVAP). The weight gains following seal coat and enteric coat are about 3-6% and 4-12% (most preferably 3-4% and 4-6%) respectively. The modified release tablets thus produced release <20% drug in the stomach following the oral administration and rapidly release the drug at higher pHs, depending on the polymer used (for e.g., at a pH >4.0 for PVAP, >5.0 for HPMCP and 5.5 for Eudragit), even though the drug solubility at these initiation pHs is negligible. The water imbibed into the tablets dissolves arginine creating a high pH environment in which Eprosartan dissolves. This high pH also dissolves the film coating, releasing the drug substance to the environment.

SMILES | safety and tolerability [1] | bioavailability ([1]; human, in vivo, oral, read-out: mean absolute bioavailability) [%] | hydrate formation during wet granulation [2] | drug solubility at the initiation pHs [3]
CCCCc1ncc(/C=C(\Cc2cccs2)C(=O)O)n1Cc1ccc(C(=O)O)cc1.CS(=O)(=O)O [(E)-α-[2-n-Butyl-1-[(4-carboxyphenyl)-methyl]-1H-imidazol-5-yl]methylene-2-thiophenepropionic acid monomethanesulfonate] | safe and well tolerated | ~13 | forms a dihydrate | 
CCCCc1ncc(/C=C(\Cc2cccs2)C(=O)O)n1Cc1ccc(C(=O)O)cc1 [Eprosartan, (E)-α-[2-n-Butyl-1-[(4-carboxyphenyl)methyl]-1H-imidazol-5-yl]methylene-2-thiophenepropionic acid] | safe and well tolerated |  | does not form a hydrate | negligible
